Test results: patent EP0087750B2, “Amino acid preparations containing glutaminic residues” (Kabi Pharmacia GmbH, priority 1982, dated 1994)
Values after ≈ are worked out from the molar mass of the structure shown. Values belong to the compound of their own block, whether it stands above or below them. Residues, ends and D or L forms follow the SMILES beside them.

Experiments:
[1] = physchem; assay type: physicochemical; details: water
From the text: (§1) Es wurde nun erkannt, daß das Glutamin als an der α-Aminogruppe durch α-Aminoacylreste substituiertes Derivat, d. h. in Form der Tri- oder Dipeptide des Glutamins dem Organismus, insbesondere durch Infusionslösungen, zugeführt werden kann, ohne Gefahr der Bildung des toxischen Cyclisierungsprodukts. Diese Di- und Tripeptide des Glutamins mit anderen Aminosäuren, wie Glycin, Alanin, Leucin, Isoleucin oder Valin, sind sehr leicht wasserlöslich, so daß sie gegebenenfalls in relativ hoher Konzentration in den Infusionslösungen angewendet werden können, wobei gleichzeitig dem Organismus auch andere Aminosäuren zugeführt werden, ohne daß dadurch osmotische Problem auftreten. Die Löslichkeit beispielsweise des Gly-Ala-Gln beträgt 680 g/L H₂O, während die freien Aminosäuren eine geringere Löslichkeit besitzen: […]: 225 g/L H₂O; Alanin: 158 g/L H₂O und Glutamin: […] H₂O.

[2] = Solubility in water; assay type: physicochemical
From the text: as §1

[3] = test system: Hydrolasen in den Geweben des Organismus; details: in vivo, cited from earlier work

Compound: C[C@H](N)C(=O)O [Alanin]
- solubility [1]: 158 mg/mL (≈ 1770 mM)

Compound: C[C@H](NC(=O)CN)C(=O)N[C@@H](CCC(N)=O)C(=O)O [Gly-Ala-Gln, Glycyl-L-alanyl-L-glutamin] (H-Gly-Ala-Gln-OH)
- Löslichkeit [2]: 680 g/L H₂O

Compound: Glycyl-leucin
- Elimination aus dem Plasma ([3]; iv): schnell aus dem Plasma eliminiert
- Spaltung durch Hydrolasen in den Geweben [3]: gut gespalten

Further lines, results first:

- solubility [1]: 325 mg/mL (≈ 2220 mM)
Compound: NC(=O)CC[C@H](N)C(=O)O [Glutamin]

- Löslichkeit [1]: 225 g/L H₂O
Compound: Glycerin
